How the values were obtained:
total serum testosterone = test: Testosterone elevation: total serum testosterone in a random, double-blind, parallel group, placebo-controlled study; format: in vivo, men
Experimental: In a random, double-blind, parallel group, placebo-controlled study, 3-{1-[4-(2-dimethylamino-ethoxy)-phenyl]-2-phenyl-but-enyl}-phenol was administered to men, aged 72 to 84 with below average serum testosterone levels. Subjects received either placebo or 3-{1-[4-(2-dimethylamino-ethoxy)-phenyl]-2-phenyl-but-enyl}-phenol as a sequential escalating dose, with subjects receiving 20 mg daily for the first month, 40 mg daily for the second month, and 60 mg daily for the final four months (remainder) of the study. Total serum testosterone was determined in the subjects at 4 weeks and at 2, 3 and 6 months.

| SMILES | melting point [°C] | Mean Percent Change From Baseline in Testosterone (total serum testosterone; 2 Months, men aged 72 to 84, escalating dose, 40 mg daily for the second month) [%] | Mean Percent Change From Baseline in Testosterone (total serum testosterone; 3 Months, men aged 72 to 84, escalating dose, 60 mg daily for the final four months) [%] | Mean Percent Change From Baseline in Testosterone (total serum testosterone; 6 Months, men aged 72 to 84, escalating dose, 60 mg daily for the final four months) [%] | Mean Percent Change From Baseline in Testosterone (total serum testosterone; Week 4, men aged 72 to 84 with below average serum testosterone, 20 mg daily for the first month) [%] | total serum testosterone versus subjects receiving placebo during the study (total serum testosterone; men aged 72 to 84, 20/40/60 mg daily escalating dose over 6 months, p=0.026) |
| --- | --- | --- | --- | --- | --- | --- |
| CCCOc1ncc(C(C)=O)cc1-c1nc2c(CC)n(C3CN(C(C)C)C3)nc2c(=O)[nH]1 | 162.8 to 163.6 |  |  |  |  |  |
| CCC(=C(c1ccc(OCCN(C)C)cc1)c1cccc(O)c1)c1ccccc1 [Treatment Compound, 3-{1-[4-(2-dimethylamino-ethoxy)-phenyl]-2-phenyl-but-enyl}-phenol] |  | 44.45 | 41.47 | 45.19 | 36.20 | significant increase |

— patent publication US6512002B2, “Methods of treatment for premature ejaculation in a male” (Pfizer Inc., priority 2000, dated 2003)
